Tests used:
A. baumannii ATCC 19606 [1] = assay: MIC, broth micro-dilution; format: cell-based, Acinetobacter baumannii; settings: Acinetobacter baumannii, ATCC19606, read-out: MIC, Single Drug
Method: (§1) A variety of Gram-negative reference strains (E. coli ATCC 25922, E. coli ATCC 10763, P. aeruginosa PAO1, P. aeruginosa ATCC 27853, A. baumannii ATCC 12457, A. baumannii ATCC 19606, K. pneumoniae ATCC 4352 and K. pneumoniae ATCC 33495) were used for initial screening and combination testing with PMB. The organisms were speciated using biochemical testing and MALDI-TOF mass spectrometry (Bruker, Preston, VIC, Australia). Activity testing of NCL259 and NCL265 was also carried out on 51 extraintestinal clinical E. coli isolates from companion animals, and 83 porcine and bovine enterotoxigenic E. coli (ETEC) isolates from the Australian Centre for Antimicrobial Resistance Ecology collection. E. coli wild-type (BW 25113) and its mutant BW 25113∆AcrB, in which the inner membrane component AcrB of the tripartite multidrug efflux system AcrA/AcrB/TolC has been deleted, were obtained from the bacterial collection held at Health and Biomedical Innovation, Clinical and Health Sciences, The University of South Australia. All isolates were cultured on sheep blood agar (SBA) plates at 37 °C for 18 h before being subcultured into Luria Bertaini (LB) (Oxoid, Scoresby, VIC, Australia) broth and grown to A600nm = 0.5 (equivalent to approx. 1.5 × 10^8 colony-forming units (CFU)/mL).
(§2) MICs for NCL259 and NCL265 (serial two-fold dilutions commencing at 256 µg/mL) were determined (in duplicate) in round bottom 96–well microtitre trays (Sarstedt 82.1582.001), using the broth micro-dilution method recommended by the Clinical and Laboratory Standards Institute (CLSI). We have shown previously that robenidine can chelate calcium ions from cation-adjusted Mueller-Hinton broth, which causes the loss of activity of robenidine. Therefore, LB broth was used in this study. Additionally, considering the low solubility of robenidine and its analogues in aqueous solutions, two-fold serial dilutions of stock solutions of these compounds were prepared in 100% DMSO [21]. The MIC for ampicillin against each isolate was determined for each test to serve as an internal quality control. The MICs of isolates were determined by visual reading and using an EnSpire Multimode Plate Reader 2300 at A600nm.

A. baumannii ATCC 12457 [2] = assay: MIC, broth micro-dilution; format: cell-based, Acinetobacter baumannii; settings: Acinetobacter baumannii, ATCC12457, read-out: MIC, Single Drug
Method: as §1, §2

K. pneumoniae 13GNB–550 = assay: Checkerboard assay with PAβN; format: cell-based, Klebsiella pneumoniae; settings: for concentration at the marked interaction: resazurin
Method: (§3) MICs of NCL259 or NCL265 in the presence of the efflux pump inhibitor, PAβN were determined using a checkerboard assay. […] Briefly, a two-fold serial dilution of each antimicrobial solution was prepared in its appropriate solvent (e.g., DMSO for robenidine analogues and Milli-Q water for PAβN), and 1 μL of each dilution was added from wells 12 to 3 (12.8–0.25 μg/mL for robenidine analogues, and 32–2 μg/mL for PAβN). Thereafter, 89 μL of LB broth was added to each well followed by the addition of 10 μL of bacterial suspension (1–5 × 10^6 CFU/mL) to each well. In this manner, the final concentration of DMSO in each well was 1%. The plate was subsequently incubated at 37 °C for 24 h. The resazurin assay was used for assessment of drug susceptibility of NCL259 and NCL265 (Supplementary Table S1–S6). The same method was also used to test the MICs of NCL259 or NCL265 in the presence of PMB against a range of Gram-negative reference strains (E. coli ATCC 25922, E. coli ATCC 10763, P. aeruginosa PAO1, P. aeruginosa ATCC 27853, A. baumannii ATCC 12457, A. baumannii ATCC 19606, K. pneumoniae ATCC 4352 and K. pneumoniae ATCC 33495). Stock solutions were prepared prior to use (25.6–0.25 mg/mL for robenidine analogues; 12.8–0.25 mg/mL for PMB). The interaction of two antibiotics was calculated as the fractional inhibitory concentration index (FICI) using the following formula:(1) FICI=MICA in combination/MICA alone+MICB in combination/MICB alone where A is NCL259 or NCL265 and B is PAβN or PMB. According to FICI calculations, the interaction between two compounds were interpreted as follows: synergistic (FICI ≤ 0.5); additive or partially synergistic (0.5 < FICI ≤ 1); indifferent (1 < FICI ≤ 4); and antagonistic (FICI > 4), as described previously. The dose reduction index (DRI) was used to describe the difference between the effective doses of NCL259 or NCL265 in combination with PMB or PAβN in comparison to their individual doses, using the following formula:(2) DRI=MICA alone/MICA in combination
(§4) Evaluation of DRI is important clinically because it can allow the dose of a potentially toxic drug to be lowered in combination with another compound without reducing the drug’s efficacy. A DRI higher than 1 is viewed as beneficial.

K. pneumoniae 13GNB–429 = assay: Checkerboard assay with PAβN; format: cell-based, Klebsiella pneumoniae; settings: for concentration at the marked interaction: resazurin
Method: as §3, §4

P. aeruginosa PAO1 = assay: MIC, broth micro-dilution; format: cell-based, Pseudomonas aeruginosa; settings: Pseudomonas aeruginosa, read-out: MIC, Single Drug
Method: as §1, §2

P. aeruginosa ATCC 27853 = assay: MIC, broth micro-dilution; format: cell-based, Pseudomonas aeruginosa; settings: Pseudomonas aeruginosa, ATCC27853, read-out: MIC, Single Drug
Method: as §1, §2

[3] = test system: K. pneumoniae 13GNB–429, K. pneumoniae 13GNB–550 and K. oxytoca 13GNB–582; assay: MIC in presence of PAβN, three resistant Klebsiella isolates; format: cell-based; settings: three resistant Klebsiella spp. isolates
Method: as §3

A. baumannii ATCC 19606 [4] = assay: Checkerboard assay with PMB; format: cell-based, Acinetobacter baumannii; settings: for MIC, Combination: NCL259 or NCL265 with PMB; for Combination Effect / FICI: with PMB
Method: as §3, §4

A. baumannii ATCC 12457 [5] = assay: Checkerboard assay with PMB; format: cell-based, Acinetobacter baumannii; settings: for MIC, Combination: NCL259 or NCL265 with PMB; for Combination Effect / FICI: with PMB
Method: as §3, §4

[6] = K. pneumoniae 13GNB–550, PAβN + NCL265
[7] = Table S5, NCL265 + PAβN, replicate 1
[8] = Table S5, NCL265 + PAβN, replicate 2
[9] = K. pneumoniae 13GNB–429, PAβN + NCL265
[10] = Table S4, NCL265 + PAβN, replicate 1
[11] = Table S4, NCL265 + PAβN, replicate 2
[12] = K. pneumoniae 13GNB–550, PAβN + NCL259
[13] = Table S2, NCL259 + PAβN, replicate 2
[14] = K. pneumoniae 13GNB–429, PAβN + NCL259
[15] = Table S1, NCL259 + PAβN, replicate 1
[16] = Table S1, NCL259 + PAβN, replicate 2

[H]/N=C(\N)NN=C(CCCCCC)c1ccc(Cl)cc1 [NCL265, (E)-2-(1-(4-chlorophenyl)heptylidene)hydrazine-1-carboximidamide]
MIC (A. baumannii ATCC 19606 [1]): 2 mg/L | MIC (A. baumannii ATCC 12457 [2]): 2 mg/L | DRI PAβN:NCL265 (K. pneumoniae 13GNB–550; K. pneumoniae 13GNB–550): 64 | Combination Effect (K. pneumoniae 13GNB–550; [6]): Additivity (additive or partially synergistic, 0.5 < FICI ≤ 1) | FICI (K. pneumoniae 13GNB–550; [6]): 0.516 | MIC, Combination (K. pneumoniae 13GNB–550; [6]): 4 mg/L | interaction (K. pneumoniae 13GNB–550; [7]): synergistic (synergistic (FICI ≤ 0.5)) | interaction (K. pneumoniae 13GNB–550; [8]): synergistic (synergistic (FICI ≤ 0.5)) | concentration at the marked interaction (K. pneumoniae 13GNB–550; [7]): 8 µg/mL | concentration at the marked interaction (K. pneumoniae 13GNB–550; [8]): 8 µg/mL | DRI PAβN:NCL265 (K. pneumoniae 13GNB–429; K. pneumoniae 13GNB–429): 64 | Combination Effect (K. pneumoniae 13GNB–429; [9]): Additivity (additive or partially synergistic, 0.5 < FICI ≤ 1) | FICI (K. pneumoniae 13GNB–429; [9]): 0.516 | MIC, Combination (K. pneumoniae 13GNB–429; [9]): 4 mg/L | interaction (K. pneumoniae 13GNB–429; [10]): synergistic (synergistic (FICI ≤ 0.5)) | interaction (K. pneumoniae 13GNB–429; [11]): synergistic (synergistic (FICI ≤ 0.5)) | concentration at the marked interaction (K. pneumoniae 13GNB–429; [10]): 8 µg/mL | concentration at the marked interaction (K. pneumoniae 13GNB–429; [11]): 8 µg/mL | MIC (P. aeruginosa PAO1): 64 mg/L | MIC (P. aeruginosa ATCC 27853): 32 mg/L | MIC in the presence of PAβN [3]: 2 to 4 mg/L | reduction of MIC in the presence of PAβN [3]: 64- to 128 fold | MIC, Combination (A. baumannii ATCC 19606 [4]): 0.5 mg/L | Dose Reduction Index (DRI) PMB:NCL265 (A. baumannii ATCC 19606 [4]; PMB + NCL265): 4 | Combination Effect (A. baumannii ATCC 19606 [4]): Additivity (additive or partially synergistic, 0.5 < FICI ≤ 1) | FICI (A. baumannii ATCC 19606 [4]): 0.75 | MIC, Combination (A. baumannii ATCC 12457 [5]): 0.5 mg/L | Dose Reduction Index (DRI) PMB:NCL265 (A. baumannii ATCC 12457 [5]; PMB + NCL265): 4 | Combination Effect (A. baumannii ATCC 12457 [5]): Additivity (additive or partially synergistic, 0.5 < FICI ≤ 1) | FICI (A. baumannii ATCC 12457 [5]): 0.75

[H]/N=C(\N)NN=C(CC1CCCCC1)c1ccc(Cl)cc1 [NCL259, (E)-2-(1-(4-chlorophenyl)-2-cyclohexylethylidene)hydrazine-1-carboximidamide]
MIC (A. baumannii ATCC 19606 [1]): 8 mg/L | MIC (A. baumannii ATCC 12457 [2]): 8 mg/L | DRI PAβN:NCL259 (K. pneumoniae 13GNB–550; K. pneumoniae 13GNB–550): 32 | Combination Effect (K. pneumoniae 13GNB–550; [12]): Additivity (additive or partially synergistic, 0.5 < FICI ≤ 1) | FICI (K. pneumoniae 13GNB–550; [12]): 0.531 | MIC, Combination (K. pneumoniae 13GNB–550; [12]): 8 mg/L | interaction (K. pneumoniae 13GNB–550; [13]): synergistic (synergistic (FICI ≤ 0.5)) | concentration at the marked interaction (K. pneumoniae 13GNB–550; Table S2, NCL259 + PAβN, replicate 1): 16 µg/mL | concentration at the marked interaction (K. pneumoniae 13GNB–550; [13]): 16 µg/mL | DRI PAβN:NCL259 (K. pneumoniae 13GNB–429; K. pneumoniae 13GNB–429): 16 | Combination Effect (K. pneumoniae 13GNB–429; [14]): Synergism (synergistic, FICI ≤ 0.5) | MIC, Combination (K. pneumoniae 13GNB–429; [14]): 16 mg/L | interaction (K. pneumoniae 13GNB–429; [15]): synergistic (synergistic (FICI ≤ 0.5)) | interaction (K. pneumoniae 13GNB–429; [16]): synergistic (synergistic (FICI ≤ 0.5)) | concentration at the marked interaction (K. pneumoniae 13GNB–429; [15]): 16 µg/mL | concentration at the marked interaction (K. pneumoniae 13GNB–429; [16]): 16 µg/mL | MIC (P. aeruginosa PAO1): 64 mg/L | MIC (P. aeruginosa ATCC 27853): 64 mg/L | MIC in the presence of PAβN [3]: 8 to 16 mg/L | reduction of MIC in the presence of PAβN [3]: 16- to 32 fold | MIC, Combination (A. baumannii ATCC 19606 [4]): 1 mg/L | Dose Reduction Index (DRI) PMB:NCL259 (A. baumannii ATCC 19606 [4]; PMB + NCL259): 8 | Combination Effect (A. baumannii ATCC 19606 [4]): Additivity (additive or partially synergistic, 0.5 < FICI ≤ 1) | FICI (A. baumannii ATCC 19606 [4]): 0.625 | MIC, Combination (A. baumannii ATCC 12457 [5]): 1 mg/L | Dose Reduction Index (DRI) PMB:NCL259 (A. baumannii ATCC 12457 [5]; PMB + NCL259): 8 | Combination Effect (A. baumannii ATCC 12457 [5]): Additivity (additive or partially synergistic, 0.5 < FICI ≤ 1) | FICI (A. baumannii ATCC 12457 [5]): 0.625
